Laboratory results taken from ChEMBL document CHEMBL1141707, “Modification of the side chain of micromolide, an anti-tuberculosis natural product” (2008).
Values after ≈ are worked out from the molar mass of the structure shown.

Columns and labels:
[1] = test system: Mycobacterium tuberculosis; assay: Antitubercular activity against Mycobacterium tuberculosis H37Rv after 4 days by microplate alamar blue assay; type: functional; conditions: 96 h
[2] = test system: Mycobacterium tuberculosis; assay: Antitubercular activity against Mycobacterium tuberculosis H37Rv by low oxygen recovery assay; type: functional

Row | SMILES | MIC [1] | MIC [2] [µM]
1 | CCN(CC)C(=O)C1=NOC(CCCCC2CCC(=O)O2)C1 (configuration not stated) | > 128 µM | –
2 | CCCCCCCC#CCCCCC1CCC(=O)O1 (configuration not stated) | 70.2 µM | –
3 | O=C1CCC(CCCCC2CC(C(=O)NCc3ccccc3)=NO2)O1 (configuration not stated) | > 128 µM | –
4 | CCCCCCCC1=NOC(CCCCC2CCC(=O)O2)C1 (configuration not stated) | > 128 µM | –
5 | CCCCCCNC(=O)C1=NOC(CCCCC2CCC(=O)O2)C1 (configuration not stated) | > 128 µM | –
6 | O=C1CCC(CCCCC2CC(C(=O)O)=NO2)O1 (configuration not stated) | > 128 µM | –
7 | CCCCCCCC/C=C\CCCC[C@@H]1CCC(=O)O1 | 1.5 µg/mL | –
8 | O=C1CCC(CCCCC2CC(C(=O)OCc3ccccc3)=NO2)O1 (configuration not stated) | > 128 µM | –
9 | CCCCCCCCNC(=O)CCCCC1CCC(=O)O1 (configuration not stated) | > 128 µM | –
10 | CCCCCCOC(=O)C1=NOC(CCCCC2CCC(=O)O2)C1 (configuration not stated) | 63.1 µM | –
11 | CCCCCCCC/C=C\CCCCC1CCC(=O)O1 (racemic) | 6.9 µM | 124 (≈ 34.8 µg/mL)
12 | CCCCCCCC(=O)NCCCCC1CCC(=O)O1 (configuration not stated) | > 128 µM | –
13 | CCCCCCC1=NOC(CCCC2CCC(=O)O2)C1 (configuration not stated) | > 128 µM | –
14 | CCCCCCCC1=NOC(CCCC2CCC(=O)O2)C1 (configuration not stated) | > 128 µM | –
15 | CC(C)(C)OC(=O)C1=NOC(CCCCC2CCC(=O)O2)C1 (configuration not stated) | > 128 µM | –
16 | CCCCCCCCCCCCCCC1CCC(=O)O1 (configuration not stated) | > 128 µM | > 128
17 | CCOC(=O)C1=NOC(CCCCC2CCC(=O)O2)C1 (configuration not stated) | > 128 µM | –
18 | CCCCCCCc1cc(CCCCC2CCC(=O)O2)on1 (configuration not stated) | 63.4 µM | –
19 | CCCCCCCC/C=C/CCCCC1CCC(=O)O1 (configuration not stated) | 19.7 µM | –
20 | CCCCCCCCC(=O)NCCCCC1CCC(=O)O1 (configuration not stated) | > 128 µM | –
21 | CCCCCCCCC#CCCCCC1CCC(=O)O1 (configuration not stated) | 44 µM | –
22 | CCCCCCNC(=O)c1cc(CCCCC2CCC(=O)O2)on1 (configuration not stated) | > 128 µM | –
23 | CCOC(=O)c1cc(CCCCC2CCC(=O)O2)on1 (configuration not stated) | > 128 µM | –
24 | CCCCCCC1=NOC(CCCCC2CCC(=O)O2)C1 (configuration not stated) | > 128 µM | –
25 | CCCCCCC/C=C\CCCCC1CCC(=O)O1 (configuration not stated) | 14.7 µM | –
